Reference: patent EP4635500A1, “THERAPEUTIC AGENT FOR BACTERIAL INFECTION” (Sumitomo Pharma Co., Ltd., priority 2022, dated 2024)
In brackets after ≈: the same amount, converted by molar mass. Read-outs that look alike come from different tables or passages of the source.

Key:
[1] = test system: A. baumannii; assay: MIC, broth microdilution, CDC/FDA Antibiotic Resistance Isolate Bank (Example 7, Tables 9, 13, 14); assay type: cell-based, Acinetobacter baumannii
[2] = test system: Providencia rettgeri; assay: MIC, broth microdilution, standard strains and Japanese clinical isolates (Example 5, Table 4); assay type: cell-based; details: ATCCBAA2525; KUB4010 Providencia rettgeri ATCC BAA-2525, OXA-181
[3] = test system: Enterobacter hormaechei; assay: as above; assay type: cell-based; details: ATCCBAA2082; KUB4001 Enterobacter hormaechei ATCC BAA-2082, KPC-2
[4] = test system: CRE and CPE strains; assay: MIC, broth microdilution, standard strains and Japanese clinical isolates (Example 5, Table 4 continued; organism of each KUB strain not given); assay type: cell-based
[5] = test system: Enterobacter cloacae; assay: MIC, broth microdilution, standard strains and Japanese clinical isolates (Example 5, Table 4); assay type: cell-based
[6] = test system: Klebsiella pneumoniae; assay: as above; assay type: cell-based
[7] = test system: 53 CRE and CPE strains; assay: MICrange, MIC50, MIC80, MIC90 for 53 bacterial isolates (Example 5, Table 5); assay type: cell-based; details: 53 bacterial isolates
[8] = test system: Escherichia coli; assay: MIC, broth microdilution, standard strains and Japanese clinical isolates (Example 5, Table 4); assay type: cell-based
[9] = target: OXA-23 (Acinetobacter baumannii, UniProt Q9L4P2); assay: Ki,app against β-lactamase (Example 1, Table 1); assay type: biochemical; details: OXA-23, class D; 30 min preincubation; n.d.: too low inhibitor activity at 100 µmol/L; read-out: Ki app
Method: After stirring, the resultants were preincubated for 30 minutes at 37°C. The reporter substrate solution was incubated at 37°C for 15 minutes or more, dispensed at 100 µL/well, and measured for a change in absorbance by a microplate reader at 37°C. For each measured concentration of the positive control and the inhibitor, an initial rate (µmol/L/sec) was determined from a time to be analyzed and a change in product amount. […] Ki,app for each inhibitor concentration was calculated from the slope, the inhibitor concentration, an enzyme concentration, Km, and kcat using Expression 2. If the initial rate was determined at two or more concentrations for each inhibitor and a plurality of Ki,app could be obtained, an average value was used as the Ki,app for the inhibitor. t−tc = Km /Vmax x ([Inhibitor]/Ki,app)x Ln[S]0 /[S] [formula] Ki,app = [Inhibitor]x Km /(kcatx[Enzyme])x 1/slope [formula]
The experiment was performed in duplicate.

Sequence of OXA-23 (Q9L4P2 18-273): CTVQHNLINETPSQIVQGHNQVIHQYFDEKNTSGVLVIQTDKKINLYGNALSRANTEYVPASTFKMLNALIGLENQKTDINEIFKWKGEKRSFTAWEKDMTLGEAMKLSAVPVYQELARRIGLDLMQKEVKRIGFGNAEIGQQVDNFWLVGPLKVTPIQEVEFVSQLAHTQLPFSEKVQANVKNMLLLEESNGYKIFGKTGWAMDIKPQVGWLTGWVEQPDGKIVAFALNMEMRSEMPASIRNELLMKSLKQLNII

C[C@H]1COc2c(N3CCN(C)CC3)c(F)cc3c(=O)c(C(=O)O)cn1c23 [Levotloxacin]
MIC ([1]; A. baumannii KUB No. 5567, AR Bank #70, OXA-58, OXA-100): 4 µg/mL (≈ 11.1 µM)
MIC ([1]; A. baumannii KUB No. 5575, AR Bank #78, OXA-71): 32 µg/mL (≈ 88.6 µM)
MIC ([1]; A. baumannii KUB No. 5580, AR Bank #83, OXA-23, OXA-69, NDM-1): 8 µg/mL (≈ 22.1 µM)
MIC ([1]; A. baumannii KUB No. 5585, AR Bank #88, OXA-64, NDM-1): 8 µg/mL (≈ 22.1 µM)
MIC ([1]; A. baumannii KUB No. 5598, AR Bank #101, OXA-24, OXA-65): 16 µg/mL (≈ 44.3 µM)
MIC ([1]; A. baumannii KUB No. 5599, AR Bank #102, OXA-66): 8 µg/mL (≈ 22.1 µM)
MIC ([1]; A. baumannii KUB No. 5706, AR Bank #273, OXA-23, OXA-66): 64 µg/mL (≈ 177 µM)
MIC ([1]; A. baumannii KUB No. 5707, AR Bank #274, OXA-66, OXA-72): 16 µg/mL (≈ 44.3 µM)
MIC ([1]; A. baumannii KUB No. 5708, AR Bank #275, OXA-23, OXA-66): 8 µg/mL (≈ 22.1 µM)
MIC ([1]; A. baumannii KUB No. 5709, AR Bank #276, no carbapenemase genes (-)): 16 µg/mL (≈ 44.3 µM)
MIC ([1]; A. baumannii KUB No. 5710, AR Bank #277, OXA-24, OXA-65): 16 µg/mL (≈ 44.3 µM)
MIC ([1]; A. baumannii KUB No. 5711, AR Bank #278, OXA-23, OXA-66): 8 µg/mL (≈ 22.1 µM)
MIC ([1]; A. baumannii KUB No. 5712, AR Bank #279, OXA-23, OXA-66): 8 µg/mL (≈ 22.1 µM)
MIC ([1]; A. baumannii KUB No. 5713, AR Bank #280, OXA-66): 16 µg/mL (≈ 44.3 µM)
MIC ([1]; A. baumannii KUB No. 5714, AR Bank #281, OXA-82): 8 µg/mL (≈ 22.1 µM)
MIC ([1]; A. baumannii KUB No. 5715, AR Bank #282, OXA-23, OXA-66): 8 µg/mL (≈ 22.1 µM)
MIC ([1]; A. baumannii KUB No. 5716, AR Bank #283, OXA-23, OXA-66): 16 µg/mL (≈ 44.3 µM)
MIC ([1]; A. baumannii KUB No. 5717, AR Bank #284, OXA-24, OXA-65): 16 µg/mL (≈ 44.3 µM)
MIC ([1]; A. baumannii KUB No. 5718, AR Bank #285, OXA-24, OXA-65): 64 µg/mL (≈ 177 µM)

C[C@@H](O)[C@H]1C(=O)N2C(C(=O)O)=C(SCCN=CN)C[C@H]12 [Imipenem, imipenem]
MIC [2]: 4 µg/mL (≈ 13.4 µM)
MIC [3]: 32 µg/mL (≈ 107 µM)
MIC ([4]; strain KUB3148, carbapenemase gene KPC-3, read-out: MIC): 1 µg/mL (≈ 3.34 µM)
MIC ([4]; strain KUB3149, carbapenemase gene NDM-1, read-out: MIC): 4 µg/mL (≈ 13.4 µM)
MIC ([4]; strain KUB3150, carbapenemase gene OXA-48, read-out: MIC): 0.5 µg/mL (≈ 1.67 µM)
MIC ([4]; strain KUB3151, carbapenemase gene IMP-1, read-out: MIC): 0.5 µg/mL (≈ 1.67 µM)
MIC ([4]; strain KUB3152, carbapenemase gene KPC-2, read-out: MIC): 8 µg/mL (≈ 26.7 µM)
MIC ([4]; strain KUB3153, carbapenemase gene KPC-3, read-out: MIC): 16 µg/mL (≈ 53.4 µM)
MIC ([4]; strain KUB3154, carbapenemase gene KPC-2, read-out: MIC): 1 µg/mL (≈ 3.34 µM)
MIC ([4]; strain KUB3163, carbapenemase gene IMP-1): 2 µg/mL (≈ 6.68 µM)
MIC ([4]; strain KUB3606, carbapenemase gene KPC-38): > 32 µg/mL
MIC ([4]; strain KUB3620, carbapenemase gene -): 32 µg/mL (≈ 107 µM)
MIC ([4]; strain KUB3628, carbapenemase gene IMP-1): 32 µg/mL (≈ 107 µM)
MIC ([4]; strain KUB3629, carbapenemase gene IMP-1): 8 µg/mL (≈ 26.7 µM)
MIC ([5]; ATCCBAA2341, KUB4002 Enterobacter cloacae ATCC BAA-2341, KPC-3): 16 µg/mL (≈ 53.4 µM)
MIC ([5]; ATCCBAA2468, KUB4006 Enterobacter cloacae ATCC BAA-2468, NDM-1): > 32 µg/mL
MIC ([6]; ATCCBAA1898, KUB3996 Klebsiella pneumoniae ATCC BAA-1898, KPC-2): 32 µg/mL (≈ 107 µM)
MIC ([6]; ATCCBAA1899, KUB3997 Klebsiella pneumoniae ATCC BAA-1899, KPC-2): 8 µg/mL (≈ 26.7 µM)
MIC ([6]; ATCCBAA1900, KUB3998 Klebsiella pneumoniae ATCC BAA-1900, KPC-3): 32 µg/mL (≈ 107 µM)
MIC ([6]; ATCCBAA1904, KUB3999 Klebsiella pneumoniae ATCC BAA-1904, KPC-3): 4 µg/mL (≈ 13.4 µM)
MIC ([6]; ATCCBAA2078, KUB4000 Klebsiella pneumoniae ATCC BAA-2078, KPC-3): 8 µg/mL (≈ 26.7 µM)
MIC ([6]; ATCCBAA2146, KUB4011 Klebsiella pneumoniae ATCC BAA-2146, NDM-1): > 32 µg/mL
MIC ([6]; ATCCBAA2342, KUB4003 Klebsiella pneumoniae ATCC BAA-2342, KPC-3): 8 µg/mL (≈ 26.7 µM)
MIC ([6]; ATCCBAA2343, KUB4004 Klebsiella pneumoniae ATCC BAA-2343, KPC-3): 16 µg/mL (≈ 53.4 µM)
MIC ([6]; ATCCBAA2472, KUB4008 Klebsiella pneumoniae subsp. Pneumoniae ATCC BAA-2472, NDM-1): 32 µg/mL (≈ 107 µM)
MIC ([6]; ATCCBAA2473, KUB4009 Klebsiella pneumoniae ATCC BAA-2473, NDM-1): 32 µg/mL (≈ 107 µM)
MIC ([6]; KUB3631 Klebsiella pneumoniae Clinical isolate, IMP-1): 1 µg/mL (≈ 3.34 µM)
MIC ([6]; KUB3633 Klebsiella pneumoniae Clinical isolate, IMP-6): 0.12 µg/mL (≈ 0.401 µM)
MIC ([6]; KUB3634 Klebsiella pneumoniae Clinical isolate, IMP-6): 0.12 µg/mL (≈ 0.401 µM)
MIC ([6]; KUB3635 Klebsiella pneumoniae Clinical isolate, IMP-1): > 32 µg/mL
MIC50 ([7]; read-out: MIC50): 4 µg/mL (≈ 13.4 µM)
MIC80 ([7]; read-out: MIC80): 32 µg/mL (≈ 107 µM)
MIC90 ([7]; read-out: MIC90): 32 µg/mL (≈ 107 µM)
MIC ([8]; ATCCBAA2452, KUB4005 Escherichia coli ATCC BAA-2452, NDM-1): 4 µg/mL (≈ 13.4 µM)
MIC ([8]; ATCCBAA2471, KUB4007 Escherichia coli ATCC BAA-2471, NDM-6): 32 µg/mL (≈ 107 µM)

O=C(NC1CCNCC1)[C@@H]1CC[C@@H]2CN1C(=O)N2OS(=O)(=O)O [Relebactam, relebactam]
Ki [9]: 5.64 ± 0.522 µM
